Results as given in ChEMBL document CHEMBL3259572, “Euodenine A: a small-molecule agonist of human TLR4” (J Med Chem, 2014).
Calls of active or inactive are those of the source. No cut-off for these calls is given here.

Columns and labels:
Format in all cases: cell-based
[1] = molecular target: Toll-like receptor 3 (Homo sapiens) (UniProt O15455); assay: Agonist activity at human recombinant TLR3 expressed in HEK293 cells at 10 uM by SEAP reporter assay
[2] = molecular target: Toll-like receptor 2 (Homo sapiens) (UniProt O60603); assay: Agonist activity at human recombinant TLR2 expressed in HEK293 cells by SEAP reporter assay
[3] = molecular target: T1, Toll-like receptor 8 (Homo sapiens) (UniProt Q9NR97); assay: Agonist activity at human recombinant TLR8 expressed in HEK293 cells at 10 uM by SEAP reporter assay
T1 sequence (whole entry): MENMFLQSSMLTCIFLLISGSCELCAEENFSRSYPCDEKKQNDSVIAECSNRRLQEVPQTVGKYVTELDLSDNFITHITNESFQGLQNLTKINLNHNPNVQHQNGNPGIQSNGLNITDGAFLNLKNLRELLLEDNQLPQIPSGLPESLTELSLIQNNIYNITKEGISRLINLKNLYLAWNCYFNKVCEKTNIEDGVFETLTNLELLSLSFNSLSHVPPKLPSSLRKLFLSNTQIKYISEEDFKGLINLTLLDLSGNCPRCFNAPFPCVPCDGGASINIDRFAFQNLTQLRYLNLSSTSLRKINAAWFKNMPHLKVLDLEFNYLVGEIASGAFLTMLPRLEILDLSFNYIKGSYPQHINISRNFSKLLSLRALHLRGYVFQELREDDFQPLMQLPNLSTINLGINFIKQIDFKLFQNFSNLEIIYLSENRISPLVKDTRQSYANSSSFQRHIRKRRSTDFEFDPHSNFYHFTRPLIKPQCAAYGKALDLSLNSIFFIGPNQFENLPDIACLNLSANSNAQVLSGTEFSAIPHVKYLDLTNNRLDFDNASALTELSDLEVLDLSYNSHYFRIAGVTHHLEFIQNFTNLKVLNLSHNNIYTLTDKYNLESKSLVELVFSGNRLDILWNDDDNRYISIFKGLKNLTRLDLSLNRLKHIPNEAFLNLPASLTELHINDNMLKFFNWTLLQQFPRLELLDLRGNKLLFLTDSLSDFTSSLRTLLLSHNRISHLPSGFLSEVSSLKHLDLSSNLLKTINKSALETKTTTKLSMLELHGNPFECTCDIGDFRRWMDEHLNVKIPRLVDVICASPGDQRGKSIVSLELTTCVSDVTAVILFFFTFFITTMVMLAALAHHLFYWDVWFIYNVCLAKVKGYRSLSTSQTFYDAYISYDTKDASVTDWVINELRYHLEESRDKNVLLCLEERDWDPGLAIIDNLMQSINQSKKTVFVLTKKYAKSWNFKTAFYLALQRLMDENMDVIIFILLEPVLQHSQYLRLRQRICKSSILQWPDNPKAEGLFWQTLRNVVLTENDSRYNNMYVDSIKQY

TLR2/TLR6 (Homo sapiens) = TLR2/TLR6 (Homo sapiens) (UniProt O60603+Q9Y2C9); assay: Agonist activity at human recombinant TLR2/6 expressed in HEK293 cells at 10 uM by SEAP reporter assay
Toll-like receptor 4 [4] = molecular target: T2, Toll-like receptor 4 (Homo sapiens, UniProt O00206); assay: Agonist activity at chimeric extracellular domain of human TLR4 fused with human intracellular domain expressed in HEK293 cells by NFkappaB reporter assay
Toll-like receptor 4 [5] = molecular target: T2, Toll-like receptor 4; assay: Intrinsic activity at human recombinant TLR4 expressed in HEK293 cells by SEAP reporter assay relative to LPS

T2 sequence (O00206 whole entry, the tested form may be a part): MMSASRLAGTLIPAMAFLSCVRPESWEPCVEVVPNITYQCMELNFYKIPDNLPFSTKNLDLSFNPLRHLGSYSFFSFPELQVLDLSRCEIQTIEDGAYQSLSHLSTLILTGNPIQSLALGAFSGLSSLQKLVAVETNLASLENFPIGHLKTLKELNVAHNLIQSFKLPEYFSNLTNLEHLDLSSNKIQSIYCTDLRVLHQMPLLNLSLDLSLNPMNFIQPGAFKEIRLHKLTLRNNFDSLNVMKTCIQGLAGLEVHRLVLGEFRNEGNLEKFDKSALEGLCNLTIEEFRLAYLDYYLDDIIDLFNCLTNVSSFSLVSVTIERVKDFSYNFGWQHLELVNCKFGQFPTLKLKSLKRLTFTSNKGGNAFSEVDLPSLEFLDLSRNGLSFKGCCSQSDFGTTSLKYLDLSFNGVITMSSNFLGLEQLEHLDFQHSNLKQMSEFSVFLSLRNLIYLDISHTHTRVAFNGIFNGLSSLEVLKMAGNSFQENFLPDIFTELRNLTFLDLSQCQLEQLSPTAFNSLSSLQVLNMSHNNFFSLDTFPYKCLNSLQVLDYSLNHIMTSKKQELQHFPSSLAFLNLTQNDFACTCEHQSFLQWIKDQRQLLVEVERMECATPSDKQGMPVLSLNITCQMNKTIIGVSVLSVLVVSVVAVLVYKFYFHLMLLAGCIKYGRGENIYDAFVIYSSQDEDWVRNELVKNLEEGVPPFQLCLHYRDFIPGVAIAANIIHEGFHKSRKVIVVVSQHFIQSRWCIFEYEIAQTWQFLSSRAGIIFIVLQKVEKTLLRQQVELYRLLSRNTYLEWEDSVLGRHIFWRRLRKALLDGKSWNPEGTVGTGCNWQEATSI
Toll-like receptor 3 (Homo sapiens), sequence (O15455 whole entry): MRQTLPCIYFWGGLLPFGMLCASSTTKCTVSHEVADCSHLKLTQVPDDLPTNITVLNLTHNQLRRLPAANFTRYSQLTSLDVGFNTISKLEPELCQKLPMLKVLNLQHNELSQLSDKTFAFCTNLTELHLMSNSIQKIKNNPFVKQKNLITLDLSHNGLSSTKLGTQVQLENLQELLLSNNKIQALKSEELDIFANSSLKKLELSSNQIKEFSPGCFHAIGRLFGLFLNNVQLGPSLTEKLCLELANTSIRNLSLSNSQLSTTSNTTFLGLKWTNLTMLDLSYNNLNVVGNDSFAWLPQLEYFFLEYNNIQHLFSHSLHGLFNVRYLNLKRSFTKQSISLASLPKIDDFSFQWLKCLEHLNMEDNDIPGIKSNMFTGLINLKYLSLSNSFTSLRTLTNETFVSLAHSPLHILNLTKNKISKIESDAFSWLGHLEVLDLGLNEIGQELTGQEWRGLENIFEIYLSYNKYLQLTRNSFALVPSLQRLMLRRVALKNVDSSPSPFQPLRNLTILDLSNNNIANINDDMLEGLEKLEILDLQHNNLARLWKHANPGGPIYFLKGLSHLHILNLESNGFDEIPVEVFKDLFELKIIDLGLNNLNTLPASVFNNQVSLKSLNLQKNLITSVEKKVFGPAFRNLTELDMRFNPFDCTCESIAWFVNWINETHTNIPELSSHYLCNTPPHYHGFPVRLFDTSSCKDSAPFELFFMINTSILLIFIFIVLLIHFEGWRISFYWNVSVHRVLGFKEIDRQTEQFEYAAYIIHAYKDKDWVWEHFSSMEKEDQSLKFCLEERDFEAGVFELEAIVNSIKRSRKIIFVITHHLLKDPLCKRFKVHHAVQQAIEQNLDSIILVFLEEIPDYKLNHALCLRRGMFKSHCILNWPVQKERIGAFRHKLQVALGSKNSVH
Toll-like receptor 2 (Homo sapiens), sequence (O60603 whole entry): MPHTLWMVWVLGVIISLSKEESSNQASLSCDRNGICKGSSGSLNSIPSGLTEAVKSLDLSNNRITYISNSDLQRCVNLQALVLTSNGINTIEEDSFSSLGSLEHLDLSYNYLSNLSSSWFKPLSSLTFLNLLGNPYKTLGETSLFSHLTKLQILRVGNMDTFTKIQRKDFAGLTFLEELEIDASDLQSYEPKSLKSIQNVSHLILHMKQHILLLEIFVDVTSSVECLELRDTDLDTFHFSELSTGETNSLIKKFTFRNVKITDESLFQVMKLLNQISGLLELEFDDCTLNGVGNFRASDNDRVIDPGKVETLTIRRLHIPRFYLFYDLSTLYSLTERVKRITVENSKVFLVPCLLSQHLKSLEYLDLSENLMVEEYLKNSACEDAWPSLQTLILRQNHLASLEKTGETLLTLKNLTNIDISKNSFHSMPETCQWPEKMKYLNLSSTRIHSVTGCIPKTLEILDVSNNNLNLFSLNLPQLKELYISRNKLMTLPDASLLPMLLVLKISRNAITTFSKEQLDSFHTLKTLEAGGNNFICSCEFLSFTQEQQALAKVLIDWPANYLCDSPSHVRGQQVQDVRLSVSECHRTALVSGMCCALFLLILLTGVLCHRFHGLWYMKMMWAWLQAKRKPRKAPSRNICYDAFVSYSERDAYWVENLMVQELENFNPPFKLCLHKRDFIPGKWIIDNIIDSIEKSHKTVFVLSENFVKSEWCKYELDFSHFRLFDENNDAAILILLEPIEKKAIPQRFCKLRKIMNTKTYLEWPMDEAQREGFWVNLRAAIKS

COc1cc([C@@H]2[C@@H](C)[C@H]3[C@@H]2c2c(c4ccccc4[nH]c2=O)OC3(C)C)cc(OC)c1OC
Activity [1]: inactive | Activity [2]: inactive | Activity [3]: inactive | Activity (TLR2/TLR6 (Homo sapiens)): inactive | Activity (Toll-like receptor 4 [4]): Active | Intrinsic activity (Toll-like receptor 4 [5]): 0.95
